“Also recorded” adds a separate entry of the source.

For test [1], the system named is endoproteinase activity of G. pallida. In words: Endoproteinase activity of G. pallida female homogenate on RUBISCO with inhibitors/activators (SDS-PAGE densitometry). The conditions noted are these: RUBISCO substrate; for % enzyme activity: pH 5.7, 25 C, mean ± SEM, control 100 ± 7, 30 min. The format is biochemical, Globodera pallida. How it is done:
Females of G. pallida were removed from potato roots and homogenised in EDTA (1 mm)-NaOH buffered distilled water (pH 6.0). The nematode homogenate was clarified by centrifugation at 13,000 g for 2 min and passed through non-absorbent cotton wool. The filtrate was used directly as the source of crude proteinases. pH was controlled using 0.1M of citrate-phosphate, sodium-phosphate and phosphate-carbonate buffers for pH 3.0-6.0, pH 6.5-7.5 and 8.0-8.5 respectively. These buffers were mixed with equal volume of the nematode homogenate and RUBISCO (150 μg) in 0.04% SDS resulting in a final reaction volume of 75 μl . […] The tubes were kept on ice for 30 min for full precipitation to occur. The supernatant was clarified by centrifugation (13,000 g, 2 min). The liberation of TCA-soluble amino groups from digested RUBISCO was used to quantify the proteolytic activity of nematode homogenates using 2, 4,6-trinitrobenzsulphonic acid (TNBS). TNBS reagent was made by mixing one volume of 0.3% (w/v) TNBS in water with four volume of 4% (w/v) sodium tetraborate in 0.15M NaOH. 250 μl of the reagent was mixed with 75 μl of sample and the reaction was allowed to proceed for 60 min at 30° C. before terminating by adding […] of 0.5M HCl. The absorbance at 340 nm was read against both homogenate and RUBISCO controls. Results are expressed as nmol of TCA-soluble amino groups liberated per min at 25° C. using a standard curve based on L-leucine in CP buffer.
Subsequent work was based on pH 5.7 using CP buffer. Females of G. pallida were rinsed in 50 mM CP buffer plus 1 mM EDTA and homogenised in ice-cold 50 mM CP buffer, centrifuging and filtering as before. The EDTA wash step was omitted for experiments using inhibitors or activators (see below).
25 μl of RUBISCO (from a stock solution in CP buffer of 1 mg/ml containing 0.04% SDS) was added to 20 μl of the sample homogenate and either 5 μl CP buffer or 5 μl of inhibitor/activator. After incubation for 60 min, the reaction was stopped by adding 30 μl of denaturing buffer and boiling for 2.5 min.
Stock inhibitor and activator solutions (Table 3) were made up in buffer and added to the nematode extract. The inhibitor/activator was pre-incubated with the enzyme solutions for 30 min at 25° C. before addition to the protein substrate
The gel was stained using Coomassie Brilliant Blue.
In order to elucidate the effect of activators and inhibitors on the proteolytic activity of nematode proteinase(s), RUBISCO was treated with the extract at 25 C. at a substrate protein-nematode protein ratio (w/w) of 8. After a 30 min incubation, the reaction mixture was terminated and analysed by SDS-PAGE. The RUBISCO substrate band in the gel was quantified densitometrically (Joyce Loble Chromscan 3), and the amount of protein remaining gave an estimation of the rate of activity of the proteinase.

The test system of test [2] is proteolytic activity of the 5HT-induced exudate from J2. As to the kind of experiment: Proteolytic activity of the 5HT-induced exudate from J2 of G. pallida (biotin/gelatin microtitre plate assay). The format is biochemical, Globodera pallida. Conditions: for Relative Activity (% of controls at that pH), pH 5 / Relative Activity (% of controls at that pH), pH 6.8: CpTi 10 μg/ml, rice preparations 30 μg/ml, other concentrations not given; for Relative Activity (% of controls at that pH), pH 6.8: maize preparation 20 μg/ml. How it is done:
Freshly hatched juveniles of G. pallida were incubated in 2.5 mM 5'hydroxytryptamine in water at 20° C. for 4 h. This caused material to exude from the mouth which can be visualized at the mouth by allowing the protein stain Ponceau S to diffuse through a small aliquot of the experimental sample containing the nematodes under a microscope slide and coverslip. Worms were removed from the medium by centrifugation at 3000 g for 2 min before the fluid was dialyzed at 4° C. against distilled water overnight. The material was freeze-dried in aliquots at -70° C. until use and reconstituted to 2.5 μg protein/ml dH2 O at 5° C. immediately before use. Assays were carried out in a reaction mixture prepared by mixing 50 μl of this solution with 20 μl of either 100 mM phosphate buffer at pH 6.8 or 100 mM titrate/phosphate buffer at pH 5 plus either 10 μl of the inhibitor under test at the concentrations given in Table 7 or dH2 O for corresponding control rates for the uninhibited exudate.
The assays were carried out by coating microtitre plates (NUNC) with 50 μl of 0.01 μg/ml biotin/gelatin in carbonate buffer (pH 9.6) overnight at 4° C. The plates were blocked with 1% gelatin and washed with PBS before adding 75 μl of freshly prepared reaction mixture for 18 h. The reaction was stopped by washing wells eight times with PBS-tween before adding 100 μl of avidin-conjugated alkaline phosphatase with 1% goat serum to each well for 1 h. The wells were washed as before with PBS-tween followed by 2 rinses in PBS before addition of 100 μl of 1 mg/ml P-nitrophenyl phosphate in substrate buffer (10% diethanolamine and 0.5 mM MgCl2) at pH 9.8. The color development was read at 405 nm using a plate reader (Biorad). All samples were compared against a reference blank which lacked nematode exudate preparation in the reaction mixture.

As to `N[C@@H](CS)C(=O)O` [Cys, cysteine], the “Effect on endoproteinase activity (in words)” value in test [1] (pH 5.7) is recorded as “stimulated”. Besides, the “% enzyme activity” value in test [1] came out at 112 ± 5%. Further, in test [2], the “Effect on proteolytic activity of the exudate at pH 5 (in words)” value (“Effect … at pH 5 (in words)” for short) is “stimulated” and the “Relative Activity (% of controls at that pH), pH 5” value is on record as > 100%. Besides, in test [2] (pH 6.8), the “Relative Activity (% of controls at that pH), pH 6.8” value stood at 100%.
Consider `OC(CS)C(O)CS` (centres unmarked) [DTT], for which, in test [1] (pH 5.7), the “Effect on endoproteinase activity (in words)” value is given as “stimulated”. The “% enzyme activity” value in test [1] was 128 ± 11%.
As to `CC(C)C[C@H](NC(=O)[C@H]1O[C@@H]1C(=O)O)C(=O)NCCCCN=C(N)N` [E-64, L-trans-epoxysuccinyl-leucylamide-(4-guanidino)-butane], the “Inhibition of proteolytic activity” value in test [1] (pH 5.7) amounted to 21%. Besides, the “% enzyme activity” value in test [1] turned out to be 79 ± 6%. For the same compound, in test [2], the “Effect … at pH 5 (in words)” value is given as “inhibited” and the “Relative Activity (% of controls at that pH), pH 5” value is 0%. In addition, in test [2] (pH 6.8), the “Relative Activity (% of controls at that pH), pH 6.8” value came to 5%.
For the compound `O=C(O)CN(CCN(CC(=O)O)CC(=O)O)CC(=O)O` [EDTA], in test [2], the “Effect … at pH 5 (in words)” value was “stimulated” and the “Relative Activity (% of controls at that pH), pH 5” value is > 100%. Further, in test [2] (pH 6.8), the “Effect on proteolytic activity of the exudate at pH 6.8 (in words)” value is listed as “inhibited” and the “Relative Activity (% of controls at that pH), pH 6.8” value is 93%.
Turning to `CC(=O)[O][Hg][c]1ccccc1` [PMA], in test [1] (pH 5.7), the “Effect on endoproteinase activity (in words)” value was “almost total inhibition”. For the same compound, the “% enzyme activity” value in test [1] stood at 11 ± 6%.
Regarding p-aminomercuribenzoate [PAMBA], in test [1] (pH 5.7), the “Effect on endoproteinase activity (in words)” value is recorded as “potent inhibitor; also recorded: almost total inhibition”. For the same compound, the “% enzyme activity” value in test [1] stood at 3 ± 4%.

These data come from US5494813A, “Nematode control with proteinase inhibitors” (Nickerson Biocem Limited, priority 1991, dated 1996).
